Source: patent US9586885B2, “Compounds for use in the treatment of inflammatory bowel disease” (Venantius Limited, priority 2011, dated 2017)
Read-outs that look alike come from different tables or passages of the source.

How the values were obtained:
[1] = Solubility in water and buffers; format: physicochemical; details: for aqueous solubility (in words): free acid enantiomers
Protocol: The sodium salt, potassium salt, calcium salt, α-methylbenzylamine salt and N-Methyl-(D)-Glucamine salt were synthesised.
The solubility of the four compounds was determined: […]

5% DSS colitis = assay: Acute murine 5% DSS colitis model; format: in vivo; details: for effect on DAI compared to vehicle control: FIG. 5; for inhibition of colon shortening (colon length) day 7 versus vehicle: FIG. 10; for colon pathology (histology score) relative to vehicle: FIG. 12; for colon IL1β level versus DSS vehicle / colon TNFα level versus DSS vehicle / colon IL6 level versus DSS vehicle / reduction of colonic myeloperoxidase (MPO) activity: day 7; for colon IL1β level versus DSS vehicle: FIG. 14(a); for colon TNFα level versus DSS vehicle: FIG. 14(b); for colon IL6 level versus DSS vehicle: FIG. 14(c); for reduction of colonic myeloperoxidase (MPO) activity: FIG. 13; for DAI on the day of autopsy versus vehicle controls: FIG. 9
From the text: The study is widely used as a model for studying the pathogenesis of UC and also for screening new therapeutic interventions for the treatment of UC.
In these studies, an acute colitis model was used, with 5% DSS administered in the drinking water of BALB/c mice. This dosage regime induces severe acute colitis, by days 7-8 mice had overt rectal bleeding and marked weight loss; unless sacrificed beforehand, all mice would have died by days 10-12.
Specific Pathogen-Free BALB/c mice, 6-8 weeks of age, were obtained from a commercial supplier (Harlan UK). Mice were fed irradiated diet and housed in individually ventilated cages (Tecniplast UK) under positive pressure.
DSS (5%) was dissolved in drinking water. Compounds were administered orally at a dose of 10 mg/kg or 30 mg/kg on days 0-7, and mice were culled on day 8 or day 9, depending on the severity of the disease. The mice were checked each day for morbidity and the weight of individual mice was recorded. Induction of colitis was determined upon autopsy, length of colon and histology. Colons were recovered and stored at −20° C. for immunological analysis. All of the compounds and experimental groups are randomly alphabetically labelled. Throughout experiments all data recording was performed in a blind manner. The codes on boxes/groups were not broken until after the data was analysed i.e. boxes labelled A, B, C etc were identified as untreated, DSS-treated, or DSS+compound-treated.
To quantify the extent of colitis, a disease activity index (DAI) was determined based on weight loss, faecal blood and stool consistency. A score was given for each parameter, with the sum of the scores used as the DAI. For each treatment group n=8.
All compounds were prepared for oral gavage (0.1 mL per os (p.o.) per 10 g body weight) as a suspension in 0.5% carboxymethyl cellulose/2% Tween 80, at a dose of 3-30 mg/Kg.

[2] = Partition coefficient by HPLC method (reverse phase C18); format: physicochemical; details: for Acid Log10 POW: acidic pH; for Basic Log10 POW: alkaline pH; for Neutral Log10 POW: neutral pH
[3] = system: chronic colitis in IL10^--/-- mice; assay: Chronic IL10-/- colitis model; format: in vivo, BALB/c strain mice; details: 300 mg/kg/week oral, MWF
Protocol: FIG. 15 Is a grph showing weight loss in IL10^--/--mice treated with vehicle or compound 6. Mice were administered compound 6 (300 mg/kg/week) or vehicle orally on a Monday/Wednesday/Friday (MWF) dosing schedule. Mice were ˜4 weeks of age at start of experiment and were treated for 9 weeks. Mice were weighed weekly and data are presented as Mean±SEM from 9-12 mice per group. Mice were monitored for overt disease, rectal prolapse, and moribund animals were humanely killed;
Mice with a deletion in the IL10^--/-- gene spontaneously develop chronic colitis, with the age of onset and the severity of the disease being dependent on background mouse strain and the conditions in which the animals are housed. The onset of colitis in IL10^--/-- mice housed under the conditions used in this study was also strain dependent, with an earlier onset and greater severity, in terms of mortality, in BALB/c strain mice relative to C57BL/6 strain animals. In this experiment, animals received oral treatment on a MWF regime over 9 weeks. Initially, both groups of mice progressively gain weight (FIG. 15). […] By week 9 animals had marked weight loss, with one moribund animal humanely killed on day 60 in each group. As other mice were losing weight and developing clinical symptoms of disease, both groups were culled at week 9 (day 63) and analysed. […] Serum was recovered from mice and Serum Amyloid A (SAA) and was analysed as a marker for severity of colitis.

[4] = 10 mg/kg daily for 7 days, vehicle 9.3±0.51, FIG. 6
[5] = 30 mg/kg p.o. daily for 7 days, vehicle controls 9.0+0.53, FIG. 4

In the case of `O=C(O)c1ccc(C[C@@]2(C3=Cc4ccccc4C3)Cc3ccccc3[C@H]2O)cc1` (single isomer, unassigned) [Compound 2], the “aqueous solubility (in words)” value [1] is reported as “limited aqueous solubility”, the “disease activity index (DAI) at day 7” value (5% DSS colitis; [4]) is reported as 2.1±0.7 and the “activity in 5% DSS murine colitis model (conclusion)” value (5% DSS colitis; 30 mg/kg p.o. daily for 7 days) is reported as “highly active”. For the same compound, the “disease activity index (DAI) at day 7” value (5% DSS colitis; [5]) was 2.5±0.71.

For `O=C(O)c1ccc(C[C@]2(C3=Cc4ccccc4C3)Cc3ccccc3[C@@H]2O)cc1` (single isomer, unassigned) [Compound 3], the “activity in 5% DSS murine colitis model (conclusion)” value (5% DSS colitis; 30 mg/kg p.o. daily for 7 days) was “minimal activity”, the “disease activity index (DAI) at day 7” value (5% DSS colitis; [5]) was 5.3±0.6 and the “DAI versus vehicle at day 6” value (5% DSS colitis; 30 mg/kg p.o. daily, FIG. 3) was “no statistical (P>0.05) difference”.

With `CNCC(O)C(O)C(O)C(O)CO.O=C(O)c1ccc(C[C@]2(C3=Cc4ccccc4C3)Cc3ccccc3[C@H]2O)cc1` [Compound 7, 6-(Methylamino)hexane-1,2,3,4,5-pentanol 4-(((1S,2R)-1-hydroxy-2,3-dihydro-1H,1′H-2,2′-biinden-2-yl)methyl)benzoate] the “solubility Milli-RO H20” value ([1]; Milli-RO water, * = estimated value, listed as Compound 5 N-Methyl-D-Glucamine salt) was >60,000* μg/mL, the “solubility pH 4.0 Buffer” value ([1]; pH 4.0 buffer) was 0.14 μg/mL and the “solubility pH 7.0 Buffer” value ([1]; pH 7.0 buffer, * = estimated value, listed as Compound 5 N-Methyl-D-Glucamine salt) was >60,000* μg/mL. For the same compound, the “solubility pH 9.0 Buffer” value ([1]; pH 9.0 buffer, * = estimated value, listed as Compound 5 N-Methyl-D-Glucamine salt) was >60,000* μg/mL, the “Acid Log10 POW” value [2] was 3.8 and the “Basic Log10 POW” value [2] was 3.5. For the same compound, the “Neutral Log10 POW” value [2] was 3.5 and the “effect on DAI compared to vehicle control” value (5% DSS colitis; 10 mg/kg daily for 7 days) was “no significant (P>0.05) effect”.

In the case of `O=C(O)c1ccc(C[C@]2(C3=Cc4ccccc4C3)Cc3ccccc3[C@H]2O)cc1` [Compound 5, 4-(((1S,2R)-1-hydroxy-2,3-dihydro-1H,1′H-2,2′-biinden-2-yl)methyl)benzoic acid], the “aqueous solubility (in words)” value [1] is reported as “limited aqueous solubility”, the “Acid Log10 POW” value [2] is reported as 3.9 and the “Basic Log10 POW” value [2] is reported as 3.7. For the same compound, the “Neutral Log10 POW” value [2] was 3.7, the “effect on DAI compared to vehicle control” value (5% DSS colitis; 10 mg/kg daily for 7 days) was “no significant (P>0.05) effect” and the “activity in 5% DSS murine colitis model (conclusion)” value (5% DSS colitis; 30 mg/kg p.o. daily for 7 days) was “highly active”. The “disease activity index (DAI) at day 7” value (5% DSS colitis; [5]) was 3.2±0.73.

For `O=C(O)c1ccc(C[C@@]2(C3=Cc4ccccc4C3)Cc3ccccc3[C@@H]2O)cc1` [Compound 4, 4-(((1R,2S)-1-hydroxy-2,3-dihydro-1H,1′H-2,2′-biinden-2-yl)methyl)benzoic acid], the “activity in 5% DSS murine colitis model (conclusion)” value (5% DSS colitis; 30 mg/kg p.o. daily for 7 days) was “almost devoid of activity” and the “DAI versus vehicle at any time point” value (5% DSS colitis; 30 mg/kg p.o. daily for 7 days, FIG. 3) was “without activity”.

With `O=C(O)c1ccc(C[C@@]2(C3=Cc4ccccc4C3)Cc3ccccc3[C@H]2O)cc1` [Compound 6, 6-(Methylamino)hexane-1,2,3,4,5-pentanol 4-(((1S,2S)-1-hydroxy-2,3-dihydro-1H,1′H-2,2′-biinden-2-yl)methyl)benzoate] the “survival over 9 weeks by Kaplan-Meier analysis versus vehicle” value [3] was “no statistical difference in survival”, the mortalities ([3]; 9 weeks, vehicle 25%) was 9.2% and the weight gain ([3]; 9 weeks, vehicle stopped gaining from week 5, FIG. 15) was “maintained weight gain until week 8”. For the same compound, the “Serum Amyloid A (SAA) levels relative to vehicle” value ([3]; week 9, FIG. 16) was “significantly (P<0.05; Student's t-test) reduced SAA levels”, the “extent of colon pathology (histology score of distal colon) relative to vehicle” value ([3]; week 9, P<0.05, FIG. 18) was “significantly reduced” and the solubility ([1]; Milli-RO water, * = estimated value, read-out: solubility Milli-RO H20) was greater than 60 mg/mL. For the same compound, the solubility ([1]; aqueous buffer, pH 7.0 buffer, * = estimated value, read-out: solubility pH 7.0 Buffer) was greater than 60 mg/mL, the solubility ([1]; aqueous buffer, pH 9.0 buffer, * = estimated value, read-out: solubility pH 9.0 Buffer) was greater than 3 mg/mL and the “Acid Log10 POW” value [2] was 2.6. For the same compound, the “Basic Log10 POW” value [2] was 4.3, the “Neutral Log10 POW” value [2] was 3.5 and the “inhibition of colon shortening (colon length) day 7 versus vehicle” value (5% DSS colitis; 3 mg/kg) was “did not have a significant effect”. For the same compound, the “colon pathology (histology score) relative to vehicle” value (5% DSS colitis; 10 mg/Kg, P<0.01) was “highly statistically significant reduction”, the “disease activity index (DAI) at day 7” value (5% DSS colitis; [4]) was 3.3±0.52 and the “inhibition of colon shortening (colon length) day 7 versus vehicle” value (5% DSS colitis; 10 mg/kg) was “did have a significant effect”. For the same compound, the “therapeutic efficacy in the DSS model relative to prednisolone” value (5% DSS colitis; 30 mg/Kg versus prednisolone 5 mg/Kg) was “comparable, or better, efficacy relative to prednisolone”, the “colon pathology (histology score) relative to vehicle” value (5% DSS colitis; 30 mg/Kg, P<0.01) was “highly statistically significant reduction” and the “colon length day 7 compared with Prednisolone” value (5% DSS colitis; 30 mg/kg versus Prednisolone 5 mg/kg, P<0.05) was “significantly better than Prednisolone”. For the same compound, the “colon IL1β level versus DSS vehicle” value (5% DSS colitis; 30 mg/kg) was “significant (P<0.05, 30 mg/kg) and dose-dependant reduction”, the “colon TNFα level versus DSS vehicle” value (5% DSS colitis; 30 mg/kg) was “significant (P<0.05, 30 mg/kg) and dose-dependant reduction” and the “colon IL6 level versus DSS vehicle” value (5% DSS colitis; 30 mg/kg) was “significant (P<0.05, 30 mg/kg) and dose-dependant reduction”. The “reduction of colonic myeloperoxidase (MPO) activity” value (5% DSS colitis; 30 mg/kg, P<0.05) was 63%, the “inhibition of colon shortening (colon length) day 7 versus vehicle” value (5% DSS colitis; 30 mg/kg) was “did have a significant effect” and the “severity of colitis, multiple parameters of disease” value (5% DSS colitis; 3, 10 and 30 mg/Kg oral daily for 7 days, dose-dependent) was “ameliorated the severity of colitis”. The “DAI on the day of autopsy versus vehicle controls” value (5% DSS colitis; 3-30 mg/kg, each dose level) was “significantly (P<0.05−P<0.01) lower DAI” and the “overt reactions in mice” value (5% DSS colitis; oral daily for 7 days, 3, 10 and 30 mg/Kg) was “no overt reactions”.

In the case of `C[C@]12C=CC(=O)C=C1CC[C@@H]1[C@@H]2[C@@H](O)C[C@@]2(C)[C@H]1CC[C@]2(O)C(=O)CO` [Prednisolone, reference compound], the “colon pathology (histology score) relative to vehicle” value (5% DSS colitis; 5 mg/Kg) is reported as “no significant improvement”, the “colon IL1β level versus DSS vehicle” value (5% DSS colitis; 5 mg/kg) is reported as “reduced (p<0.05)” and the “colon TNFα level versus DSS vehicle” value (5% DSS colitis; 5 mg/kg) is reported as “reduced (p<0.05)”. The “colon IL6 level versus DSS vehicle” value (5% DSS colitis; 5 mg/kg) was “reduced (p<0.05)”, the “reduction of colonic myeloperoxidase (MPO) activity” value (5% DSS colitis; 5 mg/kg, P<0.05) was 54% and the “DAI on the day of autopsy versus vehicle controls” value (5% DSS colitis; 5 mg/kg) was “reduced DAI scores”. For the same compound, the “inhibition of colon shortening (colon length) day 7 versus vehicle” value (5% DSS colitis; 5 mg/kg) was “did have a significant effect”.
